Measurements: patent US7138493B1, “ATP-binding cassette protein responsible for cytotoxin resistance” (The United States of America as represented by the …, priority 1998, dated 2006)

How the values were obtained:
[1] = tested on: cells that overexpress MXR1; assay: Drug resistance of cells that overexpress MXR1; format: cell-based
Description: These include mitoxantrone, several anthracyclines, rhodamine, daunomycin, SN-38 (the active metabolite of CPT-11), topotecan, and bisantrene. To identify compounds that can reverse the effect of ABCP overexpression, the concentration of drug that inhibits the proliferation of resistant cells by 50% (IC50) can be measured by an assay in the presence and absence of putative inhibitors. Compounds that cause a significant decrease in the IC50 will represent inhibitors and be characterized further.
These include mitoxantrone, several anthracyclines, rhodamine, daunomycin, SN-38 (the active metabolite of CPT-11), topotecan, and bisantrene. To identify compounds that can reverse the effect of MXR1 overexpression, the concentration of drug that inhibits the proliferation of resistant cells by 50% (IC50) will be measured in the presence and absence of putative inhibitors. Compounds that cause a significant decrease in the IC50 will represent inhibitors and be characterized further. For example, S1-M1-80 cells can be incubated in media containing 30 micromolar (IC10) of mitoxantrone and the proliferation of the cells measured by sulforhodamine staining after 96 hours with and without the addition of various potential inhibitors, as a screening assay. Next, for compounds that have potential activity, a formal calculation of the IC50 can be made by incubating the cells in a range of concentrations, diluting 3-fold from 3 mM, again, with and without the inhibitor in question. […] In the absence of a reversal agent, the IC50 is 100 micromolar for the S1M1-80 cells. Compounds that lower the IC50 for mitoxantrone can be tested for their ability to also lower the IC50 for other MXR1-transporting drugs such as adriamycin, topotecan, or bisantrene.

S1-M1-80 cells = assay: Proliferation of mitoxantrone resistant cells measured by sulforhodamine staining; format: cell-based, human
Procedure: The cells are then contacted with a toxic chemotherapy drug, such as mitoxantrone or daunomycin, in an amount that permits cell survival due to the resistance conferred by the ATP-binding cassette protein. The amount used is preferably from about 30 μM to about 3 mM. The cells are exposed to the drug for a time that is preferably from about 48 hours to about 96 hours. Cell growth is measured for these cells based on sulforhodamine staining measurement. Alternatively, cell growth can be monitored by vital stains, metabolite measurements or counting cell divisions.
One specific way to measure cell viability is by a calorimetric assay (Skehan et al., Natl. Cancer Inst. 82: 1117–1121 (1990)). […] The number of viable cells can then be determined by measuring the OD at 570 nm. Alternatively, viability of cells can be measured by counting cells with a cell counter or by incorporation of tritiated thymidine.
These include mitoxantrone, several anthracyclines, rhodamine, daunomycin, SN-38 (the active metabolite of CPT-11), topotecan, and bisantrene. […] For example, S1-M1-80 cells can be incubated in media containing 30 micromolar (IC10) of mitoxantrone and the proliferation of the cells measured by sulforhodamine staining after 96 hours with and without the addition of various potential inhibitors, as a screening assay. […]

Compound | resistance of cells that overexpress MXR1 to the drug [1] | IC50 (S1-M1-80 cells; Homo sapiens, S1-M1-80, S1M1-80 cells, in the absence of a reversal agent, read-out: IC50 (concentration of drug that inhibits the proliferation of resistant cells by 50%)) | IC10 (S1-M1-80 cells; S1-M1-80 cells, concentration in media for the screening assay, 96 hours)
COc1cccc2c1C(=O)c1c(O)c3c(c(O)c1C2=O)C[C@@](O)(C(C)=O)C[C@@H]3O[C@H]1C[C@H](N)[C@H](O)[C@H](C)O1 [daunomycin] | resistant | – | –
CC[C@@]1(O)C(=O)OCc2c1cc1n(c2=O)Cc2cc3c(CN(C)C)c(O)ccc3nc2-1 [topotecan] | resistant | – | –
C(=N\NC1=NCCN1)/c1c2ccccc2c(/C=N/NC2=NCCN2)c2ccccc12 [bisantrene] | resistant | – | –
CCc1c2c(nc3ccc(O)cc13)-c1cc3c(c(=O)n1C2)COC(=O)[C@]3(O)CC [SN-38] | resistant | – | –
O=C1c2c(O)ccc(O)c2C(=O)c2c(NCCNCCO)ccc(NCCNCCO)c21 [mitoxantrone] | resistant | 100 µM | 30 µM
rhodamine | resistant | – | –
